Data from ChEMBL document CHEMBL4842358, “Design, synthesis and biological evaluation of sphingosine-1-phosphate receptor 2 antagonists as potent 5-FU-resistance reversal agents for the treatment of colorectal cancer” (Eur J Med Chem, 2021).
Activity calls are given as the source filed them. No cut-off for these calls is given here.

How the values were obtained:
[1] = AUC (0 to infinity) in Sprague-Dawley rat plasma at 1 mg/kg, iv by LC-MS/MS analysis; format: ADME, organism-based; parameters: time infinity, route intravenous, dose 1 mg/kg
[2] = biological target: T1, Sphingosine 1-phosphate receptor 2 (Homo sapiens, UniProt O95136); assay: Binding affinity to S1PR2 (unknown origin) assessed as association constant measured for 60 secs by surface plasmon resonance assay; settings: filed as antagonist, time 60.0 sec
[3] = Initial plasma concentration in Sprague-Dawley rat at 1 mg/kg, iv by LC-MS/MS analysis; format: ADME, organism-based
[4] = Reversal of 5-FU resistance against human SW620/5-FU cells xenografted in athymic nude mouse assessed as potentiation of 5-FU induced antitumor activity by measuring inhibition of tumor growth at 12.5 mg/kg/day, iv administered for 24 days in presence of 5-FU (reference value: 18.54%); format: functional; settings: 576 h, time 24 day, read-out: TGI
[5] = AUC (0 to t) in Sprague-Dawley rat blood at 1 mg/kg, iv measured for 24 hrs by LC-MS/MS analysis; format: ADME, organism-based; parameters: time 24 hrs, dose 1 mg/kg
Mus musculus [6] = assay: Downregulation of DPD expression in tumour of athymic nude mouse xenografted with human SW620/5-FU at 12.5 mg/kg/day, iv administered for 24 days in presence of 5-FU and measured on day 24 by immunohistochemistry; format: functional, organism-based; settings: time 24.0 day
[7] = Half life in Sprague-Dawley rat blood at 1 mg/kg, iv measured for 24 hrs by LC-MS/MS analysis; format: ADME, organism-based
[8] = Plasma concentration in Sprague-Dawley rat at 1 mg/kg, iv measured after 8 hrs by LC-MS/MS analysis; format: ADME, organism-based
[9] = Mean residence time (0 to t) in Sprague-Dawley rat blood at 1 mg/kg, iv measured for 24 hrs by LC-MS/MS analysis; format: ADME, organism-based
[10] = Mean residence time (0 to infinity) in Sprague-Dawley rat plasma at 1 mg/kg, iv by LC-MS/MS analysis; format: ADME, organism-based
[11] = Ratio of drug level in Sprague-Dawley rat blood to plasma at 1 mg/kg, iv measured for 24 hrs by LC-MS/MS analysis; format: ADME, organism-based; settings: blood and plasma
[12] = Mean residence time (0 to t) in Sprague-Dawley rat plasma at 1 mg/kg, iv measured for 24 hrs by LC-MS/MS analysis; format: ADME, organism-based
[13] = Clearance in Sprague-Dawley rat plasma at 1 mg/kg, iv measured for 24 hrs by LC-MS/MS analysis; format: ADME, organism-based
[14] = Toxicity in athymic nude mouse xenografted with human SW620/5-FU cells assessed as histopathological changes in liver at 12.5 mg/kg/day, iv administered for 24 days in presence of 5-FU and measured on day 24 by immunohistochemistry; format: organism-based; settings: in vivo, 576 h, time 24 day
Mus musculus [15] = assay: Downregulation of DPD expression in liver of athymic nude mouse xenografted with human SW620/5-FU at 12.5 mg/kg/day, iv administered for 24 days in presence of 5-FU and measured on day 24 by immunohistochemistry; format: functional, organism-based; settings: time 24.0 day
[16] = Clearance in Sprague-Dawley rat blood at 1 mg/kg, iv measured for 24 hrs by LC-MS/MS analysis; format: ADME, organism-based
Mus musculus [17] = assay: Downregulation of DPD expression in colon of athymic nude mouse xenografted with human SW620/5-FU cells at 12.5 mg/kg/day, iv administered for 24 days in presence of 5-FU and measured on day 24 by immunohistochemistry; format: functional, organism-based; settings: time 24.0 day
[18] = Mean residence time (0 to infinity) in Sprague-Dawley rat blood at 1 mg/kg, iv by LC-MS/MS analysis; format: ADME, organism-based
[19] = AUC (0 to t) in Sprague-Dawley rat plasma at 1 mg/kg, iv measured for 24 hrs by LC-MS/MS analysis; format: ADME, organism-based; parameters: dose 1 mg/kg, time 24 hrs
[20] = AUC (0 to infinity) in Sprague-Dawley rat blood at 1 mg/kg, iv by LC-MS/MS analysis; format: ADME, organism-based; parameters: route intravenous, time infinity, dose 1 mg/kg
[21] = Toxicity in athymic nude mouse xenografted with human SW620/5-FU cells assessed as body weight loss at 12.5 mg/kg/day, iv administered for 24 days in presence of 5-FU and measured after 12 days; format: organism-based; settings: in vivo, 288 h, time 12 day
[22] = biological target: T1, Sphingosine 1-phosphate receptor 2; assay: Antagonist activity at S1PR2 in human SW620/5-FU cells assessed as reduction of DPD-catalyzed 5-FU degradation by measuring intracellular 5-FU level at 2 uM measured after 6 hrs by HPLC-UV analysis; format: functional, cell-based; settings: filed as antagonist
[23] = Half life in Sprague-Dawley rat plasma at 1 mg/kg, iv measured for 24 hrs by LC-MS/MS analysis; format: ADME, organism-based
[24] = biological target: T1, Sphingosine 1-phosphate receptor 2; assay: Binding affinity to S1PR2 (unknown origin) assessed as dissociation constant measured for 60 secs by surface plasmon resonance assay
[25] = Reversal of 5-FU resistance against human SW620/5-FU cells assessed as inhibition of cell proliferation measured after 72 hrs in presence of 5-FU by MTT assay; format: functional, cell-based
[26] = Volume of distribution in Sprague-Dawley rat plasma at 1 mg/kg, iv measured for 24 hrs by LC-MS/MS analysis; format: ADME, organism-based
[27] = Drug concentration in Sprague-Dawley rat blood at 1 mg/kg, iv measured after 8 hrs by LC-MS/MS analysis; format: ADME, organism-based; settings: read-out: Ct
[28] = biological target: T1, Sphingosine 1-phosphate receptor 2; assay: Binding affinity to S1PR2 (unknown origin) measured by surface plasmon resonance assay; settings: filed as antagonist
NCM460 = assay: Cytotoxicity against human NCM460 cells assessed as cell viability measured after 72 hrs in presence of 5-FU by MTT assay; format: cell-based; settings: NCM460, 72 h
[29] = Volume of distribution in Sprague-Dawley rat blood at 1 mg/kg, iv measured for 24 hrs by LC-MS/MS analysis; format: ADME, organism-based
[30] = Initial drug concentration in Sprague-Dawley rat blood at 1 mg/kg, iv by LC-MS/MS analysis; format: ADME, organism-based
HCT-116 = assay: Reversal of 5-FU resistance against human HCT-116 cells overexpressing DPD assessed as inhibition of cell proliferation measured after 72 hrs in presence of 5-FU by MTT assay; format: functional, cell-based; settings: HCT-116, 72 h
[31] = biological target: T1, Sphingosine 1-phosphate receptor 2; assay: Antagonist activity at S1PR2 in human SW620/5-FU cells assessed as reduction of DPD-catalyzed 5-FU degradation by measuring intracellular FBAL level at 2 uM measured after 6 hrs by HPLC-UV analysis; format: functional, cell-based; settings: filed as antagonist

T1 sequence (O95136 whole entry): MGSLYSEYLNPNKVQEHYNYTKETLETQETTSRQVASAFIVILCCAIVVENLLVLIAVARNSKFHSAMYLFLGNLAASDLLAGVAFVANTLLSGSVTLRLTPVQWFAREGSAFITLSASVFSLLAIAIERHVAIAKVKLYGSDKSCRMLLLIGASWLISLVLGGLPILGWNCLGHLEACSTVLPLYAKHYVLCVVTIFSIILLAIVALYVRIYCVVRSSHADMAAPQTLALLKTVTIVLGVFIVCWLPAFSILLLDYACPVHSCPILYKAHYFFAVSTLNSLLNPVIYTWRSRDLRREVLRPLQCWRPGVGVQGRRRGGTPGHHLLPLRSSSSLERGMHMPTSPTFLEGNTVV

For Cc1nn(C)c2nc(NNC(=O)Nc3cc(Cl)nc(Cl)c3)cc(C(C)C)c12, the AUC(0-inf) [1] was 484 ng·h/mL, the Ka [2] was 8.21 10^4/M/s and the C0 [3] was 2020 ng/mL. For the same compound, the inhibition in vivo at 12.5 mg/kg/day [4] was 29.9%, the AUC(0-t) at 24 h [5] was 726 ng·h/mL and the inhibition (Mus musculus [6]) was “Active”. The half-life [7] was 60 min, the concentration at 8 h [8] was < 1 ng/mL and the MRT last at 24 h [9] was 54 min. It also gave an MRT inf [10] of 54 min, a blood plasma ratio at 24 h [11] of 1.62 and an MRT last at 24 h [12] of 54 min. The clearance [13] was 35 mL/min/kg, the Activity [14] was “Non-Toxic” and the inhibition (Mus musculus [15]) was “Active”. The clearance [16] was 23.3 mL/min/kg, the inhibition (Mus musculus [17]) was “inactive” and the MRT inf [18] was 60 min. For the same compound, the AUC(0-t) at 24 h [19] was 482 ng·h/mL, the AUC(0-inf) [20] was 738 ng·h/mL and the Activity [21] was “Toxic”. The Activity [22] was 4.87 mg/L, the half-life [23] was 66 min and the “Dissociation rate constant (koff)” value [24] was 1.61 10^-1/s. The EC50 [25] was 58.6 µM, the Vd [26] was 3.1 L/kg and the concentration at 8 h [27] was < 1 ng/mL. The K [28] was 1.96 10^-6M, the EC50 (NCM460) was 61.3 µM and the Vd [29] was 2.1 L/kg. For the same compound, the C0 [30] was 1840 ng/mL, the EC50 (HCT-116) was 17.1 µM and the Activity [31] was 1.37 mg/L.
